From ChEMBL document CHEMBL5665443, “Enzyme Inhibitor Single Concentration assay results for EUbOPEN Chemogenomics Library” (2024)

Key:
[1] = target: T1, Adenine DNA glycosylase (Homo sapiens) (UniProt Q9UIF7); settings: Compound Concentration 10.0 uM, Hit No;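 also: human MUTYH activity read as 594 nm fluorescence from cleavage and release of a quenched DNA duplex, coupled with APE1 for strand incision, lower signal meaning inhibition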
T1 sequence (whole entry): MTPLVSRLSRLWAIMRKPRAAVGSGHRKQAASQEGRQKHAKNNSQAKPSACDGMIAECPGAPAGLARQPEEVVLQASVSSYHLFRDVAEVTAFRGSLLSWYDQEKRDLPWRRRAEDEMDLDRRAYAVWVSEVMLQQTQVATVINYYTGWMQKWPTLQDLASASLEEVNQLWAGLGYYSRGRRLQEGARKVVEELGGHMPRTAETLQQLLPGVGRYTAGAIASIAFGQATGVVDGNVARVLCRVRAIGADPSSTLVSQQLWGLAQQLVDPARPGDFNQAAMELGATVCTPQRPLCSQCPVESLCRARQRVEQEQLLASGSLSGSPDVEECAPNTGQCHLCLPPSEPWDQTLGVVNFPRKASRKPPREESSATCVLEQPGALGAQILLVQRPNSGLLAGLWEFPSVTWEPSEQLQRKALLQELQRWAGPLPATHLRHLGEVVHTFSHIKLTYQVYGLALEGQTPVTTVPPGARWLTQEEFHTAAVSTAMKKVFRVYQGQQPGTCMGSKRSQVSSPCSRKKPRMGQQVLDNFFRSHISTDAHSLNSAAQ
Description: Inhibition of MUTYH by quantifying inhibition of MUTYH-mediated cleavage and dissociation of quenched duplex DNA oligonucleotides, measured as fluorescence at 594 nm. To generate a functional strand incision and increase turn-over this assay is coupled to APE1.

[2] = target: G/T mismatch-specific thymine DNA glycosylase (Homo sapiens) (UniProt Q13569); settings: Compound Concentration 10.0 uM, Hit No;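 also: human TDG cleavage of quenched duplex DNA oligonucleotides coupled to APE1, strand release read as fluorescence at 594 nm, inhibition of TDG activity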
Description: Inhibition of TDG by quantifying inhibition of TDG-mediated cleavage and dissociation of quenched duplex DNA oligonucleotides, measured as fluorescence at 594 nm. To generate a functional strand incision and increase turn-over this assay is coupled to APE1.

[3] = target: Methyl-CpG-binding domain protein 4 (Homo sapiens) (UniProt O95243); settings: Compound Concentration 10.0 uM, Hit No;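 also: MBD4 activity read as fluorescence at 594 nm from cleavage and release of a quenched duplex DNA oligonucleotide, with APE1 coupled to incise the strand and raise turnover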
Description: Inhibition of MBD4 by quantifying inhibition of MBD4-mediated cleavage and dissociation of quenched duplex DNA oligonucleotides, measured as fluorescence at 594 nm. To generate a functional strand incision and increase turn-over this assay is coupled to APE1.

[4] = target: T2, Endonuclease 8-like 2 (Homo sapiens) (UniProt Q969S2); settings: Compound Concentration 10.0 uM;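 also: fluorescence at 594 nm reports NEIL2 cutting and release of a quenched double-stranded DNA oligo substrate, reduced signal read as inhibition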
T2 sequence (whole entry): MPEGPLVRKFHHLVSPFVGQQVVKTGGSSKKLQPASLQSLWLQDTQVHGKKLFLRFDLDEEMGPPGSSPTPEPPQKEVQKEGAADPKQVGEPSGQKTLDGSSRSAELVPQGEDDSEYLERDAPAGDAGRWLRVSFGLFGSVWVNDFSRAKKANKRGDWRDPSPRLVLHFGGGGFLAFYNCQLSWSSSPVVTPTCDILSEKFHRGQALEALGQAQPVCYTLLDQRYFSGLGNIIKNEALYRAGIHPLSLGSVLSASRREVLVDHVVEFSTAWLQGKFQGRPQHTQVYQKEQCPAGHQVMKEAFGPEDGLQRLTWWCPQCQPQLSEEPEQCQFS
Description: Inhibition of NEIL2 by quantifying inhibition of NEIL2-mediated cleavage and dissociation of quenched duplex DNA oligonucleotides, measured as fluorescence at 594 nm.

[5] = target: T3, Endonuclease III-like protein 1 (Homo sapiens) (UniProt P78549); settings: Compound Concentration 10.0 uM;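 also: enzyme assay tracking NTHL1 cutting and release of a quenched double-stranded DNA oligo substrate, read as fluorescence at 594 nm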
T3 sequence (whole entry): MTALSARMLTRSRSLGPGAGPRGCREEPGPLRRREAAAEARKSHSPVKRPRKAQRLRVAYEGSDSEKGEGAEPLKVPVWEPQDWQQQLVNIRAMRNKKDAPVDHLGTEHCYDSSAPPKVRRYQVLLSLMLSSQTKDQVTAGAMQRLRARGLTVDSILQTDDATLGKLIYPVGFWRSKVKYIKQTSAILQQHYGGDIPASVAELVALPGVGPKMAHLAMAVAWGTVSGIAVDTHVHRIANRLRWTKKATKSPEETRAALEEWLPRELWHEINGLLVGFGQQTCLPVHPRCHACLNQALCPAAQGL
Description: Inhibition of NTHL1 by quantifying inhibition of NTHL1-mediated cleavage and dissociation of quenched duplex DNA oligonucleotides, measured as fluorescence at 594 nm.

[6] = target: Endonuclease 8-like 1 (Homo sapiens) (UniProt Q96FI4); settings: Compound Concentration 10.0 uM;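 also: fluorescence at 594 nm from quenched duplex DNA oligonucleotides released by NEIL1 cleavage and strand separation, reported as reduction of this enzyme activity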
Description: Inhibition of NEIL1 by quantifying inhibition of NEIL1-mediated cleavage and dissociation of quenched duplex DNA oligonucleotides, measured as fluorescence at 594 nm.

[7] = target: T4, Single-strand selective monofunctional uracil DNA glycosylase (Homo sapiens) (UniProt Q53HV7); settings: Compound Concentration 10.0 uM, Hit No;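 also: enzymatic SMUG1 assay coupled with APE1, reading fluorescence at 594 nm released when a quenched double-stranded DNA oligonucleotide substrate is cleaved and separated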
T4 sequence (whole entry): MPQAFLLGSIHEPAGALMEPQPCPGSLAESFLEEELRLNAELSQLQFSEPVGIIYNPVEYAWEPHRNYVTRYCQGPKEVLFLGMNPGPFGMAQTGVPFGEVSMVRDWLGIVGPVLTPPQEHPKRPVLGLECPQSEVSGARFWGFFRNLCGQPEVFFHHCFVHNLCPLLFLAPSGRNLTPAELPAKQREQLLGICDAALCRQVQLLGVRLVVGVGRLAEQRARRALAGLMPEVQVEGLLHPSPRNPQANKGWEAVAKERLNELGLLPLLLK
Description: Inhibition of SMUG1 by quantifying inhibition of SMUG1-mediated cleavage and dissociation of quenched duplex DNA oligonucleotides, measured as fluorescence at 594 nm. To generate a functional strand incision and increase turn-over this assay is coupled to APE1.

[8] = target: DNA-3-methyladenine glycosylase (Homo sapiens) (UniProt P29372); settings: Compound Concentration 10.0 uM, Hit No;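 also: enzyme assay where MPG cuts a quenched duplex DNA oligonucleotide probe, paired with APE1 for strand incision and turnover, read as fluorescence at 594 nm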
Description: Inhibition of MPG by quantifying inhibition of MPG-mediated cleavage and dissociation of quenched duplex DNA oligonucleotides, measured as fluorescence at 594 nm. To generate a functional strand incision and increase turn-over this assay is coupled to APE1.

[9] = target: Uracil-DNA glycosylase (Homo sapiens) (UniProt P13051); settings: Compound Concentration 10.0 uM, Hit No;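 also: UNG excision on a quenched double-stranded DNA oligo probe, with APE1 added for strand incision and turnover, read as fluorescence at 594 nm as strands separate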
Description: Inhibition of UNG by quantifying inhibition of UNG-mediated cleavage and dissociation of quenched duplex DNA oligonucleotides, measured as fluorescence at 594 nm. To generate a functional strand incision and increase turn-over this assay is coupled to APE1.

[10] = target: N-glycosylase/DNA lyase (Homo sapiens) (UniProt O15527); settings: Compound Concentration 10.0 uM;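 also: OGG1 cleavage of a quenched duplex DNA oligonucleotide, coupled to APE1 for strand incision, read as fluorescence at 594 nm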
N-glycosylase/DNA lyase (Homo sapiens), sequence (O15527 whole entry): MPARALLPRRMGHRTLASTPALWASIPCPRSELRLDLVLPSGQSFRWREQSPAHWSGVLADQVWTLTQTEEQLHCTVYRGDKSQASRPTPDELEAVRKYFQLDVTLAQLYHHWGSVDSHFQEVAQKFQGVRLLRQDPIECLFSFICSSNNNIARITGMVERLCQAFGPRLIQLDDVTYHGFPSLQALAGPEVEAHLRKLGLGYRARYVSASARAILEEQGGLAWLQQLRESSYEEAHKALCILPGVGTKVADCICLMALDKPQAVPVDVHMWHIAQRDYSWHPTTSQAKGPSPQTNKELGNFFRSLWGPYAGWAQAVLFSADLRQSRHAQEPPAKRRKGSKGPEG
Description: Inhibition of OGG1 by quantifying inhibition of OGG1-mediated cleavage and dissociation of quenched duplex DNA oligonucleotides, measured as fluorescence at 594 nm. To generate a functional strand incision and increase turn-over this assay is coupled to APE1.

G/T mismatch-specific thymine DNA glycosylase (Homo sapiens), sequence (Q13569 whole entry, the tested form may be a part): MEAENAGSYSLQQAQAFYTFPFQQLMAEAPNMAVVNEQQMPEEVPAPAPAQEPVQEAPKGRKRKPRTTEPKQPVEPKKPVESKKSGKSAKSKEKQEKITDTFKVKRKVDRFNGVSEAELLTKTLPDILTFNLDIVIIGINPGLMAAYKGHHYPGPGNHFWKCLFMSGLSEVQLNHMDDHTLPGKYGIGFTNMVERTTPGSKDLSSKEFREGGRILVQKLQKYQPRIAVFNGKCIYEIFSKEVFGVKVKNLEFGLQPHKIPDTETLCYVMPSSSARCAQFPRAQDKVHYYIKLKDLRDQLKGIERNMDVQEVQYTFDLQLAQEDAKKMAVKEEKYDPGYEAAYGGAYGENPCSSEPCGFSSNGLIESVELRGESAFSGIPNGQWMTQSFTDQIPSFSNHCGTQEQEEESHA
DNA-3-methyladenine glycosylase (Homo sapiens), sequence (P29372 whole entry): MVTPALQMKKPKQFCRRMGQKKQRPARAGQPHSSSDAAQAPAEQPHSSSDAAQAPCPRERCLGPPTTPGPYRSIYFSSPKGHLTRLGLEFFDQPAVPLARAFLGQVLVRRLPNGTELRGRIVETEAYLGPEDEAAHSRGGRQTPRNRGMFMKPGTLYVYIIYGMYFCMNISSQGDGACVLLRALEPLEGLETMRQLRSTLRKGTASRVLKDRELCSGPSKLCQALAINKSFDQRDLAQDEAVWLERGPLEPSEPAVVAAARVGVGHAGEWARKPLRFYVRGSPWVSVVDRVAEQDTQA
Uracil-DNA glycosylase (Homo sapiens), sequence (P13051 whole entry): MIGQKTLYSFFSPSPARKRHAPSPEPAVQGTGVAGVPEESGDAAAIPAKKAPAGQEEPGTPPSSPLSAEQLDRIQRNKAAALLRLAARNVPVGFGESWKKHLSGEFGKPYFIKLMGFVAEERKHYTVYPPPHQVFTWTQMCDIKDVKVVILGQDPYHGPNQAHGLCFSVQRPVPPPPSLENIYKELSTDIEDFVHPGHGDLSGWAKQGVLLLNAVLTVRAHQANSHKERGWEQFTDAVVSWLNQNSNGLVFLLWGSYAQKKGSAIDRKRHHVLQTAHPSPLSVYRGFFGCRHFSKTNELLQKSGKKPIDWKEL
Methyl-CpG-binding domain protein 4 (Homo sapiens), sequence (O95243 whole entry, the tested form may be a part): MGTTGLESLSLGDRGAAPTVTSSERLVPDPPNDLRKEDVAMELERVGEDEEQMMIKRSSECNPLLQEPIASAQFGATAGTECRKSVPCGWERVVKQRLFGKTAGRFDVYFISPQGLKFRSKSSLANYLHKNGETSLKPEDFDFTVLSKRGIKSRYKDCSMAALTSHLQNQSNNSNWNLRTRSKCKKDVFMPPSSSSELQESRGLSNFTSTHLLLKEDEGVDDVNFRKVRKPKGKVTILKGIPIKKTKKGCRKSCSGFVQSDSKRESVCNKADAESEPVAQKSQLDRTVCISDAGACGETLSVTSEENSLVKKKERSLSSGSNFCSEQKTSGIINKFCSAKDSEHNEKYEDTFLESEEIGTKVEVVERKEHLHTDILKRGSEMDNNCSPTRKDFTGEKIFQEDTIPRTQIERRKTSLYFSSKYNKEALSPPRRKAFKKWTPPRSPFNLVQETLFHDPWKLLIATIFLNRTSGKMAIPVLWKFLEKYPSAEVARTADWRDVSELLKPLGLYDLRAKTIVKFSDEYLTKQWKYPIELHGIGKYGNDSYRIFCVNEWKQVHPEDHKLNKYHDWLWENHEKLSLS
Endonuclease 8-like 1 (Homo sapiens), sequence (Q96FI4 whole entry): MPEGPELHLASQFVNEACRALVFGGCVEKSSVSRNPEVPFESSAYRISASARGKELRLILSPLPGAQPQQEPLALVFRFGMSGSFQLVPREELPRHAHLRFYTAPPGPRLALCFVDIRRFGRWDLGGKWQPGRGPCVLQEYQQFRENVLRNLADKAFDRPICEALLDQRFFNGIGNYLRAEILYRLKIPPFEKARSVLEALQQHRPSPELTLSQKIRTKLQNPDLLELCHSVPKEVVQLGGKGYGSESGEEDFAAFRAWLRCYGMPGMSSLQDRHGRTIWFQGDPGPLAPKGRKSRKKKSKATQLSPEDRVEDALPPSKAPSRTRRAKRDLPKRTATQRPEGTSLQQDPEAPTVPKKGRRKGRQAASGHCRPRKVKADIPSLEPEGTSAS

| Compound | inhibition [1] | inhibition [2] | inhibition [3] | inhibition ([4]; Hit No) | inhibition ([5]; Hit No) | inhibition ([6]; Hit No) | inhibition [7] | inhibition [8] | inhibition [9] | inhibition ([10]; Hit Yes) | inhibition ([4]; Hit Yes) | inhibition ([5]; Hit Yes) | inhibition ([6]; Hit Yes) | inhibition ([10]; Hit No) |
| --- | --- | --- | --- | --- | --- | --- | --- | --- | --- | --- | --- | --- | --- | --- |
| CC1(C)CCC[C@]2(C)[C@@H](C=O)C(C=O)=CC[C@@H]12 | 80.5% | 49% | 54.4% | 8.57% | -1.08% | -1.47% | 16.1% | 14.4% | 2.98% | 88.4% | – | – | – | – |
| Cc1ccc2nc(NCCN)c3ncc(C)n3c2c1 | 83.5% | 67.6% | 53% | – | – | – | 44.2% | 75.9% | 14.9% | – | 47.1% | 43.3% | 28.9% | 47.4% |
| N[C@@H](CCP(=O)(O)O)C(=O)O | -5.97% | 17.7% | 13% | -3.15% | 12.1% | 7.42% | -0.24% | -0.846% | -0.352% | – | – | – | – | -5.28% |
| FC(F)(F)c1ccccc1-c1cc(C(F)(F)F)c2[nH]c(C3=NOC4(CCCCC4)C3)nc2c1 | -3.71% | 6.11% | 2.91% | 0.669% | -6.04% | 0.00926% | -0.41% | 0.733% | -6.03% | – | – | – | – | -6.32% |
| O=[N+]([O-])c1ccc2nc(COCc3nc4ccc([N+](=O)[O-])cc4[nH]3)[nH]c2c1 | 6.46% | 27.1% | 19.9% | 2.2% | 0.568% | 12.5% | 4.96% | 18.4% | 0.834% | – | – | – | – | 7% |
| O=C(NNC(=O)c1ccc(CNS(=O)(=O)c2ccc(F)c(Cl)c2)cc1)c1ccccc1 | 22.1% | 16.4% | 27% | -6.97% | 4.7% | 3.71% | 13.3% | 9.45% | -0.108% | – | – | – | – | 13.2% |
| Cc1nn(C)c2nc(NNC(=O)Nc3cc(Cl)nc(Cl)c3)cc(C(C)C)c12 | 28.9% | 16.6% | -2.58% | 7.5% | 4.12% | -1.83% | 4.42% | -8% | -4.71% | – | – | – | – | -2.44% |
| O=C(O)C[C@H]1CCc2c1[nH]c1ccc(OCc3ccc(C4CCCC4)c(C(F)(F)F)c3)cc21 | 9.75% | 45% | 47.5% | 0.515% | 36.4% | -9.84% | -8.03% | 18.9% | -6.26% | – | – | – | – | 34.1% |
| Cn1ncnc1COc1nn2c(-c3cc(F)ccc3F)nnc2cc1C(C)(C)C | -2.13% | 6.81% | 6.48% | -8.5% | -7.69% | 1.64% | -5.72% | -8.96% | -5.8% | – | – | – | – | -6.92% |
| Clc1ccccc1C(c1ccccc1)(c1ccccc1)n1cccn1 | 23.9% | 10.7% | 5.21% | -6.46% | 15.4% | 5.94% | -6.62% | -4.99% | -9.12% | – | – | – | – | -9.77% |
| CCOC(=O)C1=C(C)NC(C)=C(C(=O)OC)C1c1cccc([N+](=O)[O-])c1 (stereo not given) | -7.47% | 1.01% | -5.63% | -2.39% | 12.9% | 1.49% | 2.81% | 2.85% | -2.15% | – | – | – | – | -2.89% |
| COc1cccc2c1c(NS(=O)(=O)c1ccc(Cl)s1)nn2Cc1cccc(CNC(=O)C(C)(C)O)c1 | 7.32% | 0.908% | 19.3% | 1.18% | 8% | -1.47% | -4.59% | -4.44% | -8.69% | – | – | – | – | -5.21% |
